Drawing on ChEMBL document CHEMBL3046043, “Antihyperglycaemic activity of Sinularia firma and Sinularia erecta in streptozotocin-induced diabetic rats” (Med Chem Res, 2008), this text covers inhibition for eight compounds.

The target of assay [1] is T1, Glucose-6-phosphatase catalytic subunit 1 (Homo sapiens) (UniProt P35575).
T1 sequence (whole entry): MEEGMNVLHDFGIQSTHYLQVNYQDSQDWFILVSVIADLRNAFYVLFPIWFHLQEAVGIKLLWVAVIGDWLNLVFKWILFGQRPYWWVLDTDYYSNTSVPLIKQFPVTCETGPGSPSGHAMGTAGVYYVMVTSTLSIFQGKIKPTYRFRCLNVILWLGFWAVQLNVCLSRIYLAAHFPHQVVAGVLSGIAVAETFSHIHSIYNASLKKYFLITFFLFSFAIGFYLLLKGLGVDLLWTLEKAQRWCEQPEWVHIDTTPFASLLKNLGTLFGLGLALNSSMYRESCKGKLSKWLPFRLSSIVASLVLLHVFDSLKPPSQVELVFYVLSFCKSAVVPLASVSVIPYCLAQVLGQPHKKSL
The experiment in a line: Inhibition of glucose-6-phosphatase (unknown origin) using glucose-6-phosphate as substrate assessed as inorganic phosphate production at 100 uM after 30 min.

The species entered for another assay is Homo sapiens. The experiment in a line: Inhibition of glycogen phosphorylase (unknown origin) assessed as inorganic phosphate production at 100 uM after 30 min.
Assay [2] addresses T2, Tyrosine-protein phosphatase non-receptor type 1 (Homo sapiens) (UniProt P18031).
T2 sequence (whole entry): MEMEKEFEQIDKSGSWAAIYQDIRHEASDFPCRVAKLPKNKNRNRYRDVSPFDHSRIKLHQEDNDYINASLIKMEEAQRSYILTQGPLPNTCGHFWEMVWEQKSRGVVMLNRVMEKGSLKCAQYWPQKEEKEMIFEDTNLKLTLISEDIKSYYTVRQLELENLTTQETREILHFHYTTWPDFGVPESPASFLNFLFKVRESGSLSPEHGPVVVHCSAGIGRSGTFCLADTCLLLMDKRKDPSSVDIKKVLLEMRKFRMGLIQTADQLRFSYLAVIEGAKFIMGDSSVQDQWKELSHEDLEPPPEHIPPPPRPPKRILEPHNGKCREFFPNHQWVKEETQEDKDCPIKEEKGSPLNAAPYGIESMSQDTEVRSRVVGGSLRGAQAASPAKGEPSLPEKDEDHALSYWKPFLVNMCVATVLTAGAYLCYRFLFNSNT
Kind of assay: Inhibition of PTP1B (unknown origin) using p-nitrophenyl phosphate as substrate assessed as p-nitrophenolate ions production at 100 uM after 10 min.

The term inhibition denotes the percentage by which the read-out fell short of the control. Regarding `CCCCCCCCCCCCCCCCCCC(=O)OCCCCCCCCCCCCCCCCC`, the values for the inhibition (in assay [1]; in the assay listed under Homo sapiens; in assay [2]) were 8.56%, 17.2% and 11.1%, respectively.
The like results for `CCCCCCCCCCCCCCCCO[C@H]1OC[C@H](O[C@H]2OC[C@H](O[C@H]3OC[C@H](O)[C@H](O)[C@H]3O)[C@H](O)[C@H]2O)[C@H](O)[C@H]1O` were, in that order, 12%, 10.2% and 0.2%.
In the case of `CCCCCCCCCCCCCCCCCCOCC(O)CO` (centres undefined), the inhibition in assay [1] amounted to 4.25%; in the assay listed under Homo sapiens it was 14.2%; in assay [2], 4.1%.
The like results for `C=C(CCCC(C)C)[C@H]1CCC2C3CC=C4C[C@@H](O)CC[C@]4(C)C3CC[C@@]21C` (some centres undefined) were, in that order, 15.9%, 10.2% and 7.6%.
With `CCCCC/C=C/CC/C=C/[C@@H](O)[C@H](CO)NC(=O)CCCCCCCCCCCCCCC`, the inhibition is 14.6% in assay [1], 11.3% in the assay listed under Homo sapiens and 4.1% in assay [2].
For `CCCCCCCCCCC/C=C/C[C@@H](O)[C@H](CO)NC(=O)[C@H](O)CCCCCCCCCCCCCCCCCC` the same measures were 10.2%, 9.5% and 1.3%.
With `CCCCCCCCCCCCCCCCCOC(=O)CCCCCCCCCCCCCCCC`, the results for the inhibition (in assay [1]; in the assay filed under Homo sapiens; in assay [2]) were 12.7%, 18.9% and 1.3%, respectively.
On to `CCCCCCCCCCCCCCCCCCCCCCO[C@H]1OC[C@H](O[C@H]2OC[C@H](O[C@H]3OC[C@H](O)[C@H](O)[C@H]3O)[C@H](OC(C)=O)[C@H]2O)[C@H](O)[C@H]1O`, for which the inhibition in assay [1] was found to be 8.6%; in the assay filed under Homo sapiens it was 8.9%; in assay [2], 5.9%.
